Experimental data reported in US6444694B1, “Styryl benzimidazole derivatives” (Wyeth, priority 1995, dated 2002).
Counter-ions that a name gives are not always drawn. Like-named read-outs stand apart in the source and are kept apart here.

Experiments:
[1] = Cytotoxicity, commercial modification of the MTT assay; format: cell-based, porcine; set-up: dose or concentration left out as unconfirmed; conditions: pig
Experimental: To distinguish cytotoxicity from the ability of a compound to prevent proliferation, the test compounds were examined using a commercial modification of the MTT assay. Briefly, cells were grown in 24 well plates to 70-80% confluency. The cells were serum deprived for 24-48 hours prior to initiation of the experimental protocol. To insure that the MTT assay monitored toxicity rather than proliferation, the cells were incubated with […] test compound in fresh medium without serum for 24 hours at 37° C. in a humidified CO2 incubator. Upon completion of the compound treatment, MTT indicator dye was added for 4 hours a 37° C. Cells were then solubilized and aliquots from each will were transferred to a 96-well plate for analysis. Absorbance at 570 nm wavelength with a reference wavelength of 630 nm was recorded using an ELISA plate reader. Results are reported as percent viable using no drug (100% viable) and pre-solubilization (0% viable) standards.

[2] = test system: isolated porcine aortic smooth muscle cells; test: Porcine aortic smooth muscle cell antiproliferation (3H thymidine incorporation); format: cell-based; conditions: 24-36 hours
Experimental: The ability of the compounds of the present invention to inhibit smooth muscle cell proliferation was established using isolated porcine aortic smooth muscle cells in a modification of the procedure of Castellot et al. J. Biol. Chem 257(19) 11256 (1982), as follows:
Fresh porcine aortas, scrupulously cleansed of fatty tissue, are rinsed in sterile phosphate-buffered saline with 2% antibiotic-antimycotic (100×) liquid (10,000 units of penicillin (base), 10,000 μg of streptomycin (base), and 25 μg of amphotericin B/mL utilizing penicillin G (sodium salt), streptomycin sulfate, and amphotericin B as Fungizone® in 0.85% saline, available from Gibco Laboratories, Grand Island Biological Co., Grand Island, N.Y.). The tissue is then digested in 10-15 mL of an enzyme solution containing collagenase type I, 165 U/mL; elastase type III, 15 U/mL; BSA, 2 mg/mL; and soybean trypsin inhibitor, 0.375 mg/mL, followed by incubation at 37° C. under 5% CO2 atmosphere for 10 to 15 minutes. After this treatment, the outer surface adventitia is removed by peeling with a forceps. The aorta is then longitudinally cut and laid open and the endothelial layer is removed by scraping.
The medial layer of cells is rinsed in the enzyme solution, and placed in a new 100 mm dish with 10 mL of enzyme solution. The medial layer of cells is minced using a fine pair of scissors and digested for 2-3 hours at 37° C. in 30 mL of fresh enzyme solution. After digestion, the medial tissue is homogenized using a sterile Pasteur pipette with a fire polished tip or an Eppendorf pipetter with a 200-1000 μL sterile pipette tip. The suspension is then centrifuged for 10 minutes at 8000 rpm and the pellet is suspended in 4-6 mL of fresh enzyme solution and plated onto 4-6 100 mm flasks with vented caps. The cells are then allowed to grow to confluence and split using 0.25% trypsin. The cells are evaluated for purity and overall quality using antibody to SMC actin.
The cells are assayed in early passage (generally passage 3-7) at sub-confluent conditions. Cultures are grown in 16 mm (24 well) multi-well culture dishes in media 199 supplemented with 10% fetal bovine serum and 2% antibiotic/antimycotic. At subconfluence, the cells are placed in a defined serum free, lymphocyte medium (AIM-V; Gibco) for 24-48 hours prior to initiating the experimental protocol.
The standard test procedure is initiated by addition of the test compound, ^3H thymidine and serum or a specific growth factor to the serum deprived synchronized cells. Growth factor and serum stimulations are optimized for each cell type. The test compounds are added to each well at 50 fold dilution (20 μL/well) and the plates are incubated for 24-36 hours at 37° C. in 5% CO2 atmosphere. Test compounds are dissolved in 50% ethanol and assayed at 1, 10, and 100 μM. As a control, RG 50872 (Bilder, G. A.; et al., Am. J. Cell Physiol., 1991; 260: C721) is routinely assayed under the conditions of each cell preparation at a concentration of 5 μM.
At the completion of the experiment, the plates are placed on ice, washed three times with ice cold PBS and incubated in ice cold 10% trichloroacetic acid (TCA) for 30 minutes to remove acid soluble proteins. Each solution is transferred to a scintillation vial containing 0.4N HCl (500 μL/vial to neutralize NaOH) and each well is rinsed two times with water […].
Data is quantitated by subjecting the vials to a scintillation counter, in triplicate, for both control and experimental samples. Control (100%) data is obtained from maximally stimulated cells, as the result of growth factor or serum stimulation. Experimental data is obtained from cells maximally stimulated with growth factor or serum and treated with a test compound. (The platelet-derived growth factor used in the assay was human recombinant PDGF-AB purchased from Upstate Biotechnology Inc., Lake Placid, N.Y.). Data is expressed as a percent of control from which IC50s are determined.

[3] = Sus scrofa, serum-stimulated, serum deprived synchronized cells, read-out: Porcine Smooth Muscle Cell Antiproliferation IC50 or % Inhibition at x Concentration, Serum
[4] = Sus scrofa, stimulated with human recombinant PDGF-AB, read-out: Porcine Smooth Muscle Cell Antiproliferation IC50 or % Inhibition at x Concentration, PDGF
[5] = serum-stimulated, serum deprived synchronized cells, read-out: Porcine Smooth Muscle Cell Antiproliferation IC50 or % Inhibition at x Concentration, Serum
[6] = stimulated with human recombinant PDGF-AB, read-out: Porcine Smooth Muscle Cell Antiproliferation IC50 or % Inhibition at x Concentration, PDGF

Compound `COc1ccc2[nH]c(C=Cc3ccc(OC)c(OC)c3)nc2c1` (as salt: hydrochloride) (hydrate or solvate) [Example 2, 2-[2-(3,4-Dimethoxyphenyl)-vinyl]-5-methoxy-1H-benzoimidazole] has a melting point of 246 to 249 °C.

Work on `COC(=O)c1ccc(Cn2c(C=Cc3ccc(OC)c(OC)c3)nc3c(OC)c(C)c(C)c(OC)c32)cc1` (hydrate or solvate) [Example 8, 4-{2-[2-(3,4-Dimethoxyphenyl)-vinyl]-4,7-dimethoxy-5,6-dimethyl-benzoimidazol-1-ylmethyl}-benzoic acid methyl ester] yielded a melting point of 111 to 114 °C.

`COc1ccc(/C=C/c2nc3ccccc3[nH]2)cc1OC` [Example 1, (E)-2-[2-(3,4-Dimethoxyphenyl)-vinyl]-1H-benzoimidazole] showed a viability at 24 h [1] of 100%, an IC50 [2, 3] of 5910 nM and an IC50 [2, 4] of 4100 nM.

`COc1ccc2[nH]c(C=Cc3ccc(OC)c(OC)c3)nc2c1` [Example 2, 2-[2-(3,4-Dimethoxyphenyl)-vinyl]-5-methoxy-1H-benzoimidazole] gave a viability at 24 h [1] of 100%, an IC50 [2, 3] of 11400 nM and an IC50 [2, 4] of 3480 nM.

For `COc1ccc(C=Cc2nc3cc(C(=O)c4ccccc4)ccc3[nH]2)cc1OC` [Example 3, {2-[2-(3,4-Dimethoxyphenyl)-vinyl]-1H-benzoinmidazol-5-yl}-phenyl-methanone], the IC50 [2, 5] was 7600 nM and the IC50 [2, 6] was 324 to 801 nM.

`COc1ccc(C=Cc2nc3c(OC)c(C)c(C)c(OC)c3[nH]2)cc1OC` [Example 4, 2-[2-(3,4-Dimethoxyphenyl)-vinyl]-4,7-dimethoxy-5,6-dimethyl-1H-benzoimidazole] showed a melting point of 116 to 119 °C, a viability at 24 h [1] of 100% and an IC50 [2, 3] of 1280 nM. It also gave an IC50 [2, 4] of 1500 nM.

`COC(=O)c1ccc2[nH]c(/C=C/c3ccc(OC)c(OC)c3)nc2c1` [Example 5, (E)-2-[2-(3,4-Dimethoxyphenyl)-vinyl]-1H-benzoimidazole-5-carboxylic acid methyl ester] showed a melting point of 185 to 188 °C, a viability at 24 h [1] of 100% and an IC50 [2, 3] of 1200 nM. It also gave an IC50 [2, 4] of 6120 nM.

In the case of `COc1ccc(/C=C/c2nc3cc(C(=O)O)ccc3[nH]2)cc1OC` [Example 6, (E)-2-[2-(3,4-Dimethoxyphenyl)-vinyl]-1H-benzoimidazole-5-carboxylic acid], the viability at 24 h [1] is reported as 100%, the IC50 [2, 3] is reported as 2260 nM and the IC50 [2, 4] is reported as 7490 nM.

Compound `COc1ccc(/C=C/c2nc3cc([N+](=O)[O-])ccc3[nH]2)cc1OC` [Example 7, (E)-2-[2-(3,4-Dimethoxyphenyl)-vinyl]-5-nitro-1H-benzoimidazole] has a melting point of 223 to 225 °C, a viability at 24 h [1] of 100% and an IC50 [2, 3] of 567 to 1900 nM. For the same compound, the IC50 [2, 4] was 1490 nM.

Compound `COC(=O)c1ccc(Cn2c(C=Cc3ccc(OC)c(OC)c3)nc3c(OC)c(C)c(C)c(OC)c32)cc1` [Example 8, 4-{2-[2-(3,4-Dimethoxyphenyl)-vinyl]-4,7-dimethoxy-5,6-dimethyl-benzoimidazol-1-ylmethyl}-benzoic acid methyl ester] has a viability at 24 h [1] of 80%, an IC50 [2, 3] of 915 to 10200 nM and an IC50 [2, 4] of 622 nM.

With `COc1ccc(C=Cc2nc3c([nH]2)C(=O)C(C)=C(C)C3=O)cc1OC` [Example 9, 2-[2-(3,4-Dimethoxyphenyl)-vinyl]-5,6-dimethyl-1-benzoimidazol-4,7-dione] the IC50 [2, 5] was 14500 nM and the IC50 [2, 6] was 858 nM.

For `O=[N+]([O-])c1ccc2[nH]c(/C=C/c3ccncc3)nc2c1` [Example 10, (E)-5-Nitro2-(2-pyridin-4-yl-vinyl)-1H-benzoimidazole], the viability at 24 h [1] was 45%, the IC50 [2, 3] was 8360 nM and the IC50 [2, 4] was 620 nM.

Work on `O=[N+]([O-])c1ccc2[nH]c(/C=C/c3ccoc3)nc2c1` [Example 11, (E)-2-(2-Furan-3-yl-vinyl)-5-nitro-1H-benzoimidazole] yielded a melting point of 230 to 233 °C.
